“Also recorded” adds a separate entry of the source.
Columns and labels:
Assay type in all cases: in vivo, humans
[1] = Estimated glomerular filtration rate after administration of 90 mg tin protoporphyrin; settings: mean ± 1 SD
[2] = Urine biomarkers of kidney injury after administration of 90 mg tin protoporphyrin
[3] = tested on: NQO1; assay: Plasma and urinary NQO1 responses to 90 mg SnPP infusion
Description: Values are means/95% confidence intervals; urine values are after log base 10 conversion; statistics by ANOVA repeated measures, in-group comparisons.
(§1) Baseline and maximal (peak) plasma anti-oxidant protein concentrations, as generated with the highest test dose of SnPP (90 mg). CKD=CKD 3 and CKD 4 groups combined. […] The values presented are means and 95% confidence intervals. Please see the figures for change of values over time and statistics by ANOVA for repeated measures. […] The timing of the peak values were 4 days, 12 hrs, 12 hrs and 4 hrs for HO-1, ferritin, p21, and NQO1, respectively.

[4] = tested on: p21; assay: Plasma p21 concentrations following SnPP injection
Description: There were marked variations in p21 values between participants, as reflected by large standard deviations (SDs: numbers in parentheses that appear at the bottom of the graph). (HVs=healthy volunteers; BL=baseline).
as §1

[5] = tested on: ferritin; assay: Plasma ferritin levels following SnPP injection
Description: Plasma ferritin levels were measured at baseline and 24+48 hrs following 90 mg SnPP injection in healthy volunteers and in CKD3/CKD4 participants. […] Means/95% confidence intervals are depicted.
as §1

[6] = tested on: HO-1; assay: Plasma HO-1 levels following SnPP injection
Description: Plasma HO-1 levels were measured at baseline and from 1-4 days following 9, 27, or 90 mg SnPP injection. Time and dose dependent increases were observed (mean values/95% confidence intervals depicted).
The plasma HO-1 levels rose following SnPP injection in stage 3 CKD ([…]) and stage 4 CKD ([…]) participants as shown in FIG. 2. Plasma HO-1 levels were measured at baseline and from 1-4 days following 27 mg or 90 mg SnPP injection. […] P<0.001, all in-group comparisons; ANOVA, repeated measures. The mean values/95% confidence intervals are depicted.
as §1

[7] = 90 mg SnPP, healthy volunteers and CKD combined

Q: Which results are given for `C=Cc1c2[n-]c(c1C)/C=c1\[n-]/c(c(C)c1C=C)=C\c1[n-]c(c(CCC(=O)O)c1C)/C=c1\[n-]c(c(C)c1CCC(=O)O)=C2.[Sn+4]` [SnPP, tin protoporphyrin]?
A: eGFR ([1]; CKD3, Day 2 post SnPP 90 mg): 50 ± 6 ml/min/1.73 m^2; eGFR ([1]; CKD3, Day 4 post SnPP 90 mg): 47 ± 6 ml/min/1.73 m^2; eGFR ([1]; CKD4, Day 2 post SnPP 90 mg): 23 ± 5 ml/min/1.73 m^2; eGFR ([1]; CKD4, Day 4 post SnPP 90 mg): 22 ± 4 ml/min/1.73 m^2; eGFR ([1]; Healthy Volunteers, Day 2 post SnPP 90 mg): 87 ± 5 ml/min/1.73 m^2; eGFR ([1]; Healthy Volunteers, Day 4 post SnPP 90 mg): 88 ± 4 ml/min/1.73 m^2; urine Cystatin C ([2]; CKD 3, Day 1, mean ± 1 SD): 26.8 ± 12.9 ng/mg Cr; urine KIM-1 ([2]; CKD 3, Day 1, mean ± 1 SD): 0.8 ± 0.2 ng/mg Cr; urine NAG ([2]; CKD 3, Day 1, mean ± 1 SD): 5.66 ± 3.44 mU/mg Cr; urine NGAL ([2]; CKD 3, Day 1, mean ± 1 SD): 46.5 ± 35.3 ng/mg Cr; urine Cystatin C ([2]; CKD 3, Day 2, mean ± 1 SD): 32.2 ± 9.8 ng/mg Cr; urine KIM-1 ([2]; CKD 3, Day 2, mean ± 1 SD): 1.5 ± 0.6 ng/mg Cr; urine NAG ([2]; CKD 3, Day 2, mean ± 1 SD): 8.2 ± 3.44 mU/mg Cr; urine NGAL ([2]; CKD 3, Day 2, mean ± 1 SD): 35.8 ± 23.2 ng/mg Cr; urine Cystatin C ([2]; CKD 3, Day 3, mean ± 1 SD): 34.0 ± 9.4 ng/mg Cr; urine KIM-1 ([2]; CKD 3, Day 3, mean ± 1 SD): 1.4 ± 0.6 ng/mg Cr; urine NAG ([2]; CKD 3, Day 3, mean ± 1 SD): 6.5 ± 1.7 mU/mg Cr; urine NGAL ([2]; CKD 3, Day 3, mean ± 1 SD): 49.8 ± 39.7 ng/mg Cr; urine Cystatin C ([2]; CKD 3, Day 4, mean ± 1 SD): 33.2 ± 33.2 ng/mg Cr; urine KIM-1 ([2]; CKD 3, Day 4, mean ± 1 SD): 0.9 ± 0.2 ng/mg Cr; urine NAG ([2]; CKD 3, Day 4, mean ± 1 SD): 5.9 ± 2.1 mU/mg Cr; urine NGAL ([2]; CKD 3, Day 4, mean ± 1 SD): 42.6 ± 51.7 ng/mg Cr; urine Cystatin C ([2]; CKD 4, Day 1, mean ± 1 SD): 332 ± 519 ng/mg Cr; urine KIM-1 ([2]; CKD 4, Day 1, mean ± 1 SD): 0.8 ± 1.0 ng/mg Cr; urine NAG ([2]; CKD 4, Day 1, mean ± 1 SD): 12.5 ± 11.34 mU/mg Cr; urine NGAL ([2]; CKD 4, Day 1, mean ± 1 SD): 58.0 ± 79.1 ng/mg Cr; urine Cystatin C ([2]; CKD 4, Day 2, mean ± 1 SD): 638 ± 965 ng/mg Cr; urine KIM-1 ([2]; CKD 4, Day 2, mean ± 1 SD): 1.2 ± 1.0 ng/mg Cr; urine NAG ([2]; CKD 4, Day 2, mean ± 1 SD): 10.6 ± 7.5 mU/mg Cr; urine NGAL ([2]; CKD 4, Day 2, mean ± 1 SD): 64.8 ± 91.0 ng/mg Cr; urine Cystatin C ([2]; CKD 4, Day 3, mean ± 1 SD): 186 ± 213 ng/mg Cr; urine KIM-1 ([2]; CKD 4, Day 3, mean ± 1 SD): 1.2 ± 1.0 ng/mg Cr; urine NAG ([2]; CKD 4, Day 3, mean ± 1 SD): 10.5 ± 5.6 mU/mg Cr; urine NGAL ([2]; CKD 4, Day 3, mean ± 1 SD): 47.3 ± 60.2 ng/mg Cr; urine Cystatin C ([2]; CKD 4, Day 4, mean ± 1 SD): 207 ± 238 ng/mg Cr; urine KIM-1 ([2]; CKD 4, Day 4, mean ± 1 SD): 1.0 ± 0.8 ng/mg Cr; urine NAG ([2]; CKD 4, Day 4, mean ± 1 SD): 6.2 ± 3.4 mU/mg Cr; urine NGAL ([2]; CKD 4, Day 4, mean ± 1 SD): 48.0 ± 49.5 ng/mg Cr; urine Cystatin C ([2]; HVs, Day 1, mean ± 1 SD): 32.1 ± 15.1 ng/mg Cr; urine KIM-1 ([2]; HVs, Day 1, mean ± 1 SD): 0.7 ± 0.5 ng/mg Cr; urine NGAL ([2]; HVs, Day 1, mean ± 1 SD): 21.1 ± 28.7 ng/mg Cr; urine Cystatin C ([2]; HVs, Day 2, mean ± 1 SD): 34.8 ± 7.2 ng/mg Cr; urine KIM-1 ([2]; HVs, Day 2, mean ± 1 SD): 0.8 ± 0.7 ng/mg Cr; urine NAG ([2]; HVs, Day 2, mean ± 1 SD): 3.16 ± 1.16 mU/mg Cr; urine NGAL ([2]; HVs, Day 2, mean ± 1 SD): 14.8 ± 13.1 ng/mg Cr; urine Cystatin C ([2]; HVs, Day 3, mean ± 1 SD): 39.6 ± 9.4 ng/mg Cr; urine KIM-1 ([2]; HVs, Day 3, mean ± 1 SD): 0.7 ± 0.4 ng/mg Cr; urine NAG ([2]; HVs, Day 3, mean ± 1 SD): 2.51 ± 0.64 mU/mg Cr; urine NGAL ([2]; HVs, Day 3, mean ± 1 SD): 14.0 ± 8.7 ng/mg Cr; urine Cystatin C ([2]; HVs, Day 4, mean ± 1 SD): 40.4 ± 9.3 ng/mg Cr; urine KIM-1 ([2]; HVs, Day 4, mean ± 1 SD): 0.6 ± 0.4 ng/mg Cr; urine NAG ([2]; HVs, Day 4, mean ± 1 SD): 2.66 ± 0.8 mU/mg Cr; urine NGAL ([2]; HVs, Day 4, mean ± 1 SD): 10.2 ± 5.6 ng/mg Cr; timing of the peak plasma value, NQO1 ([3]; 90 mg SnPP): 4 h; peak plasma NQO1 value vs baseline [3, 7]: significantly higher than baseline values; plasma NQO1 ([3]; healthy volunteer and CKD participants, 90 mg SnPP injection): acute, near identical increases; urinary NQO1/creatinine levels ([3]; healthy volunteers and combined CKD participants, 72 hr observation period, 90 mg SnPP): significant, and progressive increases; p21 response, CKD group compared to healthy volunteer group ([4]; 90 mg SnPP): significantly blunted p21 response; timing of the peak plasma value, p21 ([4]; 90 mg SnPP): 12 h; peak plasma p21 value vs baseline [4, 7]: significantly higher than baseline values; plasma p21 fold increase over baseline (mean) ([4]; CKD group (combined)): 0.51; plasma p21 ([4]; healthy volunteer and CKD participants, 12 and 24 hrs post SnPP injection): plasma p21 increases; plasma p21 fold increase over baseline (mean) ([4]; healthy volunteer group): 2.65; timing of the peak plasma value, ferritin ([5]; 90 mg SnPP): 12 h; plasma ferritin increases over baseline, CKD vs healthy volunteer groups ([5]; 90 mg SnPP injection): comparable; peak plasma ferritin value vs baseline [5, 7]: significantly higher than baseline values; plasma ferritin levels ([5]; baseline and 24+48 hrs following 90 mg SnPP injection, healthy volunteers and CKD3/CKD4): increase; also recorded: significant plasma ferritin increases; timing of the peak plasma value, HO-1 ([6]; 90 mg SnPP): 4 days; peak plasma HO-1 value vs baseline [6, 7]: significantly higher than baseline values; plasma HO-1 levels ([6]; healthy volunteers, baseline and 1-4 days following 9, 27, or 90 mg SnPP injection): rise in a dose dependent fashion; also recorded: rose in a dose dependent fashion; plasma HO-1 levels ([6]; stage 3 CKD and stage 4 CKD participants, 1-4 days following 27 mg or 90 mg SnPP injection): rise and Time and dose dependent HO-1 increases

From patent US20250161235A1, “STRESS TEST AND TREATMENT OF CHRONIC KIDNEY DISEASE” (Renibus Therapeutics, Inc., priority 2020, published 2025)
